Results reported in patent US20240343754A1, “7-SUBSTITUTED 7-DEAZAADENINE-CONTAINING 2',3'-CYCLIC DINUCLEOTIDES” (USTAV ORGANICKE CHEMIE A BIOCHEMIE AV CR, V. V. I., priority 2021, published 2024).
Read-outs that look alike come from different tables or passages of the source.

What was measured:
[1] = tested on: Peripheral blood mononuclear cells (PBMC); experiment: PBMC assay: induction of cytokines INFα and INFγ; type: cell-based; conditions: Homo sapiens, PBMCs, 16 h incubation, mean from three different PBMC donors
[2] = Cytotoxic effect on PBMCs (CellTiter-Glo Luminescent Cell Viability Assay); type: cell-based; conditions: human, 16 h incubation, mean from three different PBMC donors
Method: Briefly, buffy coats were obtained from the Institute of Hematology and Blood Transfusion (Prague, Czech Republic). Informed written consent was signed by each volunteer. Isolation of PBMCs was performed on Ficoll density gradient centrifugation (Ficoll Paque Plus, GE Healthcare, USA) in SepMate tubes (SepMate PBMC Isolation Tubes, Stemcell Technologies, Canada). Obtained PBMCs were washed using PBS with 2 mM EDTA, and then seeded onto 96-well U-shape plates at density 500,000 cells per well in RPMI 1640 media with 10% (v/v) heat inactivated FBS. Serially diluted CDNs were added to cells and cells were incubated for 16 h (37° C., 5% CO2). After incubation, medium was collected to determine levels of INFα and INFγ using ProcartaPlex Assays and MAGPIX System (Merck, Germany) according to the manufacturer's instructions. Cytotoxic effect of CDNs on PBMCs was determined using CellTiter-Glo® Luminescent Cell Viability Assay (Promega Corporation, USA) according to manufacturer's instruction.

wt hSTING = wt hSTING (Homo sapiens, UniProt Q86WV6); experiment: Standard 293T reporter cell-based assay (IRF-3 dependent firefly luciferase reporter); conditions: read-out: Standard assay EC50; 293T reporter cells expressing wt hSTING; 7 h incubation; mean of three independent experiments in triplicates, SD <50%
Method: Briefly, the day before testing cells were seeded onto 96-well white plates at density 250,000 cells per cm^2 in DMEM High glucose medium supplemented with 10% (v/v) heat inactivated fetal bovine albumin (FBS). The next day medium was removed, and cell were incubated for 7 h (37° C., 5% CO2) with serial dilution of compounds in medium. After incubation, Bright-Glo Luciferase Assay System reagent was added to cells and luminescence readout was performed on SPARK instrument (Tecan, Austria). EC50 values were determined using in software Prism (GraphPad, USA).

[3] = read-out: PBMC assay EC50 INF α
[4] = read-out: PBMC assay EC50 INF γ

Chain of wt hSTING (Q86WV6 whole entry H232R): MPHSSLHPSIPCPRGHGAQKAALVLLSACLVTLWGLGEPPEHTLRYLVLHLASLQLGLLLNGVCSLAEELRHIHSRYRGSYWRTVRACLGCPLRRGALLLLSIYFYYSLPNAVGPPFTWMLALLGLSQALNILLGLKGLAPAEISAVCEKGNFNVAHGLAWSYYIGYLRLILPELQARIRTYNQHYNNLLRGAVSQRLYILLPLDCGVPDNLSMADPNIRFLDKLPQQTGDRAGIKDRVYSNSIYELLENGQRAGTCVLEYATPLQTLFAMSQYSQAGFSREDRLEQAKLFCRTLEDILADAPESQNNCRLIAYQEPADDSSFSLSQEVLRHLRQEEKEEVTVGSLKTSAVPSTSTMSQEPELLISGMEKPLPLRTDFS

## Nc1nc2c(ncn2[C@@H]2O[C@@H]3COP(=O)(O)O[C@H]4[C@@H](O)[C@H](n5cc(-c6ccc(COc7cccc8ccccc78)cc6)c6c(N)ncnc65)O[C@@H]4COP(=O)(O)O[C@@H]2[C@@H]3O)c(=O)[nH]1 [Compound 1h, 2-amino-9-((5R,7R,8R,12aR,14R,15R,15aS,16R)-14-(4-amino-5-(4-((naphthalen-1-yloxy)methyl)phenyl)-7H-pyrrolo[2,3-d]pyrimidin-7-yl)-2,10,15,16-tetrahydroxy-2,10-dioxidooctahydro-12H-5,8-methanofuro[3,2-l][1,3,6,9,11]pentaoxa[2,10]diphosphacyclotetradecin-7-yl)-1,9-dihydro-6H-purin-6-one]
[1]; [3]
  EC50: 1.97 µM
[1]; [4]
  EC50: 1.08 µM
[2]
  CC50 at 16 h: > 200 µM
Wt hSTING
  EC50: 2.58 µM

## Nc1nc2c(ncn2[C@@H]2O[C@@H]3COP(=O)(O)O[C@H]4[C@@H](O)[C@H](n5cc(-c6cc7ccccc7o6)c6c(N)ncnc65)O[C@@H]4COP(=O)(O)O[C@@H]2[C@@H]3O)c(=O)[nH]1 [Compound 1k, 2-amino-9-((5R,7R,8R,12aR,14R,15R,15aS,16R)-14-(4-amino-5-(benzo[b]furan-2-yl)-7H-pyrrolo[2,3-d]pyrimidin-7-yl)-2,10,15,16-tetrahydroxy-2,10-dioxidooctahydro-12H-5,8-methanofuro[3,2-l][1,3,6,9,11]pentaoxa[2,10]diphosphacyclotetradecin-7-yl)-1,9-dihydro-6H-purin-6-one]
[1]; [3]
  EC50: 13.8 µM
[1]; [4]
  EC50: 8.48 µM
[2]
  CC50 at 16 h: > 200 µM
Wt hSTING
  EC50: 10.9 µM

## Nc1nc2c(ncn2[C@@H]2O[C@@H]3COP(=O)(O)O[C@H]4[C@@H](O)[C@H](n5cc(-c6cc7ccccc7s6)c6c(N)ncnc65)O[C@@H]4COP(=O)(O)O[C@@H]2[C@@H]3O)c(=O)[nH]1 [Compound 1l, 2-amino-9-((5R,7R,8R,12aR,14R,15R,15aS,16R)-14-(4-amino-5-(benzo[b]thiophen-2-yl)-7H-pyrrolo[2,3-d]pyrimidin-7-yl)-2,10,15,16-tetrahydroxy-2,10-dioxidooctahydro-12H-5,8-methanofuro[3,2-l][1,3,6,9,11]pentaoxa[2,10]diphosphacyclotetradecin-7-yl)-1,9-dihydro-6H-purin-6-one]
[1]; [3]
  EC50: 47.6 µM
[1]; [4]
  EC50: 47.5 µM
[2]
  CC50 at 16 h: > 200 µM
Wt hSTING
  EC50: 8.69 µM
